Experimental data reported in article PMC6675551, “Mass spectrometry–driven exploration reveals nuances of neoepitope-driven tumor rejection” (JCI Insight, 2019).

What was measured:
tetramer+ CD8+ T cells [1] = assay: Tetramer staining of CD8+ T cells in immunized naive non-tumor-bearing mice; format: in vivo, BALB/cJ mice; conditions: for CD8+ T cell response by tetramer staining (in words): immunized naive, non-tumor-bearing mice; for Tetramer+ cells of total CD8+ T cells, blood: blood harvested 1 week after second immunization
Experimental: In parallel, naive, non–tumor-bearing mice immunized with the neoepitopes were tested for CD8^+ T cell responses to 7 of the 8 neoepitopes. ELISpot assays could not be performed because of the high background generated by incubation of T cells with any DCs. […] Tetramer staining was therefore used for better sensitivity and specificity (Figure 2D). (Tetramers against the neoepitope MAPVRTASM derived from Aebp1 gene could not be made.) Blood and the spleen of the immunized mice were harvested 1 week after the second immunization and stained for CD3, CD8, as well as specific binding to neoepitope tetramers (Figure 2, D and E). Of the 2 neoepitopes able to strongly elicit tumor rejection (TGAARFDEF and AYMKMLSSSL), only TGAARFDEF elicited a measurable CD8^+ T cell response as detected by tetramer staining. […] Of these, the response elicited by VGPEILSSL (derived from Trib3) was the strongest CD8^+ T cell response among all neoepitopes; approximately 10% of the CD8^+ T cells (in blood) in mice immunized with it were tetramer^+. As controls, we measured, in 2 instances, tetramer response in mice immunized with an irrelevant neoepitope; such nonspecific response was never detected.
(§1) The antibody specific for Fixable Viability Dye eFluor 780 was purchased from eBioscience. PE tetramer specific for each neoepitope was synthesized, validated, and tested by MBL International Corporation. Tetramer testing was performed prior to product release according to standard operating procedures of MBL, and the tetramers were further tested for specificity in our laboratory. The FITC-labeled antibody specific for CD8 (clone KT15) was purchased from the same company. BV510 CD3 (clone 17A2) was purchased from Biolegend. Mouse FcR blocking reagent was purchased from Miltenyi Biotec. Flow cytometry was performed using Miltenyi Biotec MACSQuant analyzer. The analysis was done using FlowJo software (FlowJo LLC).

[2] = system: Meth A fibrosarcoma tumor cells; assay: Tumor rejection after immunization with neoepitope-pulsed BMDCs and Meth A challenge; format: in vivo, BALB/cJ mice; conditions: for Tumor rejection activity (in words): immunized twice 1 week apart with neoepitope-pulsed BMDCs (3 × 10^6), challenge with 95,000 Meth A cells 1 week later, CTLA4 blockade except TGAARFDEF
Text: The 8 MS-defined neoepitopes were used to immunize naive BALB/cJ mice twice, 1 week apart, with neoepitope-pulsed bone marrow–derived dendritic cells (BMDCs, 3 × 10^6) as adjuvants, as previously published ([22]). All mice were challenged with 95,000 Meth A tumor cells 1 week after the second immunization, and tumor growth was monitored in individual mice (Figure 2, A and B). […] The TCI score parameterizes the tumor rejection, tumor inhibition, and tumor stability scores to produce a total TCI score, which reflects the control of the tumor growth in each group.
Day 7 BMDCs were pulsed with 40 μg of the neoepitope (1 μL of a 20 mM neoepitope solution was added to 7.5 million BMDCs in 200 μL RPMI medium for final peptide concentration of 100 μM). The pulsed BMDCs were washed 4 times and used to immunize a single mouse. Mice were randomized before being used for immunization with individual peptides to control for any cage effects. All immunizations were performed in the presence of CTLA4 blockade, using the […] (clone 9D9, Bio X Cell), administered with the second immunization and every 3 days after tumor challenge except for peptide TGAARFDEF. Tumor diameters were measured in 2 dimensions and the average diameter determined.
TCI quantitates and integrates all 3 aspects of tumor growth: inhibition, period of tumor size stability, and tumor shrinkage (complete response), as published previously ([23]).

tetramer+ CD8+ T cells [3] = assay: Tetramer staining of CD8+ T cells in non-immunized tumor-bearing mice; format: in vivo, BALB/cJ mice; conditions: unimmunized Meth A tumor-bearing mice, blood and spleen
Experimental: Thus, of the 7 neoepitopes tested, 4 neoepitopes elicited expansion of tetramer^+ CD8^+ T cells on immunization of naive, non–tumor-bearing mice (Figure 2E). We now examined CD8^+ T cell responses to the 4 neoepitopes in unimmunized, tumor-bearing mice (Figure 2F). […] As controls, CD8 cells from mice bearing an antigenically irrelevant tumor (4T1) were tested for tetramer response to all 7 neoepitopes; no response was detected. Altogether, CD8^+ T cell responses in non-immunized tumor-bearing mice and immunized tumor-naive mice were often discordant.
as §1

[4] = system: Meth A fibrosarcoma tumor cells; assay: CD8 depletion in vivo during priming of neoepitope-immunized mice; design: species or system BALB/cJ mice; conditions: 250 μg anti-CD8 depleting antibody or isotype control 6 days before first immunization (priming phase)
Experimental: CD8 dependence of neoepitope-elicited tumor immunity was tested in the case of the peptide TGAARFDEF (derived from Gtf2b) by depletion of neoepitope-immunized mice by anti-CD8 depleting antibody or an isotype control antibody during the priming phase alone, as described in the Methods. […] The kinetics of recovery of the depleted CD8^+ cells in mice is not uniform, resulting in lack of abrogation of immunity in 2 of the 5 mice. Because depletion of CD4^+ T cells results in depletion of helper as well as regulatory CD4^+ T cells, and the 2 effects are contradictory, depletion of CD4^+ cells was not attempted.
BALB/cJ mice were injected with 250 μg of isotype control (InVivoMAb rat IgG2b isotype control, Bio X Cell) or CD8-depleting antibody (InVivoMAb anti–mouse CD8α, rat IgG2b, clone 2.43, Bio X Cell) antibodies 6 days before the first immunization (priming phase). The CD8^+ cells remained completely depleted in all mice until day 6; after that the recovery was variable.

IFN-γ+ CD8+ cells = IFN-γ+ CD8+ cells from mice immunized with individual peptides; format: in vivo, BALB/cJ mice; conditions: data not shown
[5] = neoepitope-pulsed BMDC immunization, 95,000 Meth A cells challenge

| Sequence | CD8+ T cell response by tetramer staining (in words) (tetramer+ CD8+ T cells [1]) | Tumor rejection activity (in words) [2] | CD8+ T cell response by tetramer staining (in words) (tetramer+ CD8+ T cells [3]) | further results |
| --- | --- | --- | --- | --- |
| AYMKMLSSSL | did not elicit a measurable CD8^+ response |  |  | Immunized mice able to reject the tumor completely [2, 5]: 60%; Immunized mice with relatively prolonged tumor stabilization [2, 5]: 30% |
| IGPRALDVL | good tetramer CD8^+ T cell response | intermediate tumor rejection | significant CD8^+ T cell response |  |
| IGPRAVDVL [reference compound] |  | intermediate tumor rejection activity |  | Tetramer+ cells (CD8+ T cell response), tissue not stated (tetramer+ CD8+ T cells [1]; immunized naive mice, 1 week after second immunization): ~ 0.35% |
| KYLQVASHV |  | inactive |  |  |
| KYLQVASHVGL | strong CD8^+ T cell response | did not elicit tumor rejection | did not elicit such a response |  |
| SYLLGSGEARL |  |  |  | Immunized mice able to reject the tumor completely [2, 5]: about 50% |
| TGAARFDEF |  | complete tumor rejection | could not detect a measurable CD8^+ T cell response | CD8 dependence of neoepitope-elicited tumor immunity [4]: completely abolished the neoepitope-elicited tumor rejection in 3 of the 5 mice; Tetramer+ cells of total CD8+ T cells, blood (tetramer+ CD8+ T cells [1]; immunized naive mice): approximately 0.7%; Tetramer+ cells of total CD8+ T cells, spleen (tetramer+ CD8+ T cells [1]; immunized naive mice, spleen harvested 1 week after second immunization): ~0.43%; IFN-γ+ CD8+ cell response (IFN-γ+ CD8+ cells): a specific response was detected |
| VGPEILSSL |  | no tumor rejection | significant CD8^+ T cell response | Tetramer+ cells of total CD8+ T cells, blood (tetramer+ CD8+ T cells [1]; immunized naive mice): approximately 10% |
| YIRPFETKVK |  |  |  | Tumor Rejection Score (max score = 5) ([2]; BALB/cJ mice immunized with peptide-pulsed BMDCs, Meth A challenge, Table 2): 4.5 |
